The source of these data is patent US11549123B2, “Plant EPSP synthases and methods of use” (PIONEER HI-BRED INTERNATIONAL, INC., priority 2015, dated 2023).

Each structure is given as a SMILES string.

The target in experiment [1] is T1, Zea mays EPSPS, native, SEQ ID NO:2 (Zea mays, UniProt O24566).
T1 construct: E. coli BL21(DE3), Ni-NTA purified
T1 sequence (O24566 with tags, fused parts or gaps): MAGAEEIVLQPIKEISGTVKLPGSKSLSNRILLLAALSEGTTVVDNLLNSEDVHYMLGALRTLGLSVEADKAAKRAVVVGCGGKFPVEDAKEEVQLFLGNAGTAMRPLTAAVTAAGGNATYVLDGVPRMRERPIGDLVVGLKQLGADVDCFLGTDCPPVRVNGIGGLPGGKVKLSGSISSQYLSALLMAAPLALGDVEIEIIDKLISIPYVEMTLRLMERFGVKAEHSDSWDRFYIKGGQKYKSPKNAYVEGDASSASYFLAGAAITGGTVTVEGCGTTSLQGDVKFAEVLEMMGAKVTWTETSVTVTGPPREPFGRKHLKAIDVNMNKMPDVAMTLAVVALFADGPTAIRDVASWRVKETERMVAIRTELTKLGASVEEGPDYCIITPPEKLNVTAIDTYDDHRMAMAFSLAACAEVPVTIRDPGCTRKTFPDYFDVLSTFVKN
As to the kind of experiment: Substrate saturation analysis with glyphosate (Example 8, global fit to competitive inhibition), native maize. The class given is biochemical. The text has this: Generally, (kcat/KM)*KI is obtained by performing substrate saturation analysis in the absence and presence of inhibitor. However, that analysis takes longer. […] To validate the method, (kcat/KM)*KI was quantified using both methods—traditional (saturation) and the instant method (rapid), for variants of maize 5-enolpyruvylshikimate-3-phosphate synthase (EPSPS) and its competitive inhibitor, glyphosate.
The amino acid sequence of mature Zea mays EPSPS was obtained from GenBank entry CAA44974.1 (SEQ ID NO:2). A nucleotide sequence was created to add an N-terminal methionine and to optimize codon usage for expression in E. coli. The synthesized gene was cloned into an expression vector that provides a T7 promoter driving expression of the protein and a 10× N-terminal histidine tag. Variants selected for this study include native maize EPSPS and variants generated by a gene shuffling cascade described herein. The proteins were expressed in E. coli BL21(DE3) and purified by Ni-NTA resin (Qiagen). Protein concentration was determined by absorbance at 280 nm using an extinction coefficient of 0.676 OD/mg/m L. The proteins were normalized to 0.5 mg/mL for assay.
EPSPS activity was determined by quantifying the phosphate generated by the reaction. Release of phosphate was coupled to reaction with MESG, catalyzed by purine-nucleoside phosphorylase, using standard methods. The absorbance change that occurs was monitored continuously at 360 nm, where the extinction is 11,200 M-1 cm-1, with a Spectramax plate reader (Molecular Devices). […] The enzyme concentration was adjusted so as to generate sufficient signal without exceeding the limit for linear initial reaction rates. The same procedure was repeated with two or three concentrations of glyphosate and the data were processed by non-linear regression analysis with GraphPad Prism (graphpad.com) and globally fitted to the Michaelis-Menten equation for competitive inhibition.
To validate that the rapid method yields an accurate estimation of (kcat/KM)*KI, the results were compared with those obtained by full substrate saturation analysis. […]

Experiment [2] has as its target T2, Oryza sativa EPSPS, native, SEQ ID NO:7 (Oryza sativa, UniProt Q93VK6).
T2 sequence (Q93VK6 64-511): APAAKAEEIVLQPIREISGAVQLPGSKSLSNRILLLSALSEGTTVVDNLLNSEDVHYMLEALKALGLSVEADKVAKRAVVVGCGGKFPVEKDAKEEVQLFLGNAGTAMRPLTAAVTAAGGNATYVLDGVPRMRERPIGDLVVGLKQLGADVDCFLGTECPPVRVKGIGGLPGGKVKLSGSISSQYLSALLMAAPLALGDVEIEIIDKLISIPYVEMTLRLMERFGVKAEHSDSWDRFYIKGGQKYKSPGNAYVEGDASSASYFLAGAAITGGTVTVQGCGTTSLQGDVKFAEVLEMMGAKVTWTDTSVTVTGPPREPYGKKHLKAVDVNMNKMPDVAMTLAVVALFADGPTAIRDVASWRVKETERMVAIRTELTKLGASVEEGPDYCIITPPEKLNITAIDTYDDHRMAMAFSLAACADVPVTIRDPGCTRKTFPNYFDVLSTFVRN
As to the kind of experiment: EPSPS substrate saturation kinetics, native rice. The class given is biochemical. The protocol: EPSPS activity was determined by quantifying the phosphate generated from the EPSPS reaction. Release of inorganic phosphate was coupled to reaction with 2-amino-6-mercapto-7-methylpurine ribonucleoside, catalyzed by purine-nucleoside phosphorylase (M R Webb, Proc. Natl. Acad. Sci. 89:4884-4887, 1992). The absorbance change that occurs was monitored at 360 nm, where the extinction is 11,200 M^−1 cm^−1, with a Spectramax plate reader (Molecular Devices). To determine kinetic parameters, the varied substrate was present at seven concentrations (the eighth being the blank, containing no substrate) ranging from 4 to 400 uM and the unvaried substrate present at saturation. Six microliters of 50-fold concentrated stock solutions of the varied substrate were placed in the wells of the 96-well assay plate and reactions were started with the addition of a mixture containing 25 mM Hepes, pH 7, 100 mM KCl, 0.3 mM 2-amino-6-mercapto-7-methylpurine ribonucleosde, 1 uM (1 unit/ml) purine-nucleoside phosphorylase (Sigma N8264) and 200 uM of the non-varied substrate. Reactions were monitored with a Spectramax plate reader. The Michaelis-Menten kinetics protocol of the Spectramax software was customized for the substrate concentrations used. The software returns values of KM and Vmax using the Lineweaver-Burke transformation of the Michaelis-Menten equation. To determine kcat, Vmax (uM/min) was divided by the enzyme concentration (uM). […] KI was then calculated from the following form of the Michaelis-Menten equation for competitive inhibition: KI=KM[I]/(KM app−KM) KM approximates the dissociation constant of the enzyme-substrate complex while kcat is the rate of conversion of substrate to product when the substrate concentration is saturating. kcat/KM is a widely accepted parameter for catalytic efficiency when substrate concentration is low (˜KM). […] The parameter kcat/KM×KI is used to quantify both catalytic efficiency and insensitivity and thus the overall fitness of the enzyme.
Native EPSPS amino acid sequences of rice (Oryza sativa) (SEQ ID NO:7), sorghum (Sorghum halepense) (SEQ ID NO:8), and sunflower (Helianthus annus) (SEQ ID NO:9) including the chloroplast transit peptide sequences were assembled and analyzed for mapping the corresponding amino acid mutations from the maize 868-H6. If complete EPSPS sequences were not available, appropriate adjustments were made based on sequence alignments and conserved residue mapping.
ChloroP Prediction Server (Emanuelsson, O. et al. 1999. Protein Sci. 8(5):978-84) was used to approximate the amino terminus of the mature EPSPS proteins. […] The synthetic genes were cloned into a plasmid vector and expressed, purified and analyzed as described in Example 1.

[3] abbreviates: substrate saturation, Zm native.

`C=C(OP(=O)(O)O)C(=O)O` [PEP, phosphoenolpyruvate]: the kcat in experiment [1] (setting [3]) turned out to be 17.27 s⁻¹; in experiment [2] (PEP varied), 30.97 s⁻¹. Also, the Km in experiment [2] (read-out: KM (PEP), PEP varied) is 12.6 µM.

`O=C(O)CNCP(=O)(O)O` [glyphosate, N-phosphonomethylglycine]: the Ki in experiment [1] is 130 nM; in experiment [2] it was 100 nM. For the same molecule, the “(kcat/KM)*KI” value in experiment [1] (setting [3]) amounted to 12; in experiment [2] (PEP as substrate, glyphosate as inhibitor), 18.
